Some results are limits rather than exact numbers.

One assay has as its target TRKA^WT kinase (Homo sapiens (Human), UniProt P04629). Nature of the assay: Inhibitory activity against TRKA WT kinase (Caliper mobility shift). The following applies: in vitro kinase assay. Format: biochemical. The method in brief:
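Kinase preincubated 10 min at room temperature with compound (10-point 3-fold series from 1000 nM), then reaction started with ATP and Kinase Substrate 22. Substrate conversion read by Caliper mobility shift; IC50 from variable-slope log(inhibitor)–response fit of % inhibition versus no-enzyme and no-compound controls.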

The next assay concerns the target TRKA^F589L kinase (Homo sapiens (Human), UniProt P04629, F589L). The assay is described as follows: Inhibitory activity against TRKA(F589L) kinase (Caliper mobility shift). In kind it is biochemical. The settings on record: in vitro kinase assay. As for the experimental part: Kinase Assay Process: 1× Kinase buffer was prepared. […] The compounds were serially diluted into 10 concentrations ([…], 0.15, and 0.05 nM) using a Precision 3-fold dilution method. By using the Echo550 liquid handler, 250 nL of the 100-fold final concentration compound was transferred to an OptiPlate-384F plate. a 2.5× final concentration kinase solution was prepared using 1× Kinase buffer. 10 μL of the 2.5× final concentration kinase solution was added to the compound wells and the positive control wells, and 10 μL of 1× Kinase buffer was added to the negative control wells. The plate was centrifuged at 1000 rpm for 30 seconds, vortexed for mixing, and then incubated at room temperature for 10 minutes. A mixture of 5/3× final concentration of ATP and Kinase Substrate 22 was prepared using 1× Kinase buffer. 15 μL of the mixture of the 5/3× final concentration ATP and the substrate was added to initiate the reaction, the 384-well plate was centrifuged at 1000 rpm for 30 seconds, vortexed for mixing, and incubated at room temperature for the required time. 30 μL of the termination solution was added to stop the kinase reaction, the plate was centrifuged at 1000 rpm for 30 seconds, and vortexed for mixing. The conversion rate was measured using the Caliper EZ Reader.
Data Analysis: the inhibition rate was calculated as follows:
% Inhibition=(Conversion %_max−conversion %_sample)÷(Conversion %_max−conversion %_min)×100
Conversion %_sample is the conversion rate reading for the sample; Conversion %_min is the average value of the negative control wells, representing the conversion rate for wells without enzyme activity: Conversion %_max is the average value of the positive control wells, representing the conversion rate for wells without compound inhibition. A dose-response curve was fitted using the log concentration of the compound as the X-axis and the percentage inhibition as the Y-axis. The log(inhibitor) vs. response-variable slope of the GraphPad Prism 5 software was used to fit the dose-response curve, and the IC50 value for each compound was obtained. The calculation formula is:
Y=Bottom+(Top−Bottom)/(1+10^((Log IC50−X)*HillSlope)).
wherein X represents the concentration of the compound to be tested; Y represents the inhibition rate at the concentration X: Top refers to the maximum response: Bottom refers to the baseline response; HillSlope refers to the slope of the curve (i.e., the gradient).

For assay [1], the system named is Ba/F3-TPM3-NTRK1-G667C cells. Nature of the assay: Growth inhibition of Ba/F3-TPM3-NTRK1-G667C cells (Cell Titer-Glo). Format: cell-based. The settings on record: 72 hours, CTG; read-out: inhibitory activity IC50 Ba/F3-TPM3-NTRK1-G667C. The method in brief: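 Ba/F3 cells were exposed for 72 hours to serially DMSO-diluted compound at a top final concentration of 10 μM. Viability was read by Cell Titer-Glo luminescence after the plate equilibrated 30 min at room temperature and was then shaken 1 hour in the dark at room temperature.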
(In ATP-based viability assays light output follows the ATP content of the culture.)

The subject of assay [2] is Ba/F3-TPM3-NTRK1-G595R cells. The assay is described as follows: Growth inhibition of Ba/F3-TPM3-NTRK1-G595R cells (Cell Titer-Glo). The settings on record: 72 hours, CTG; read-out: inhibitory activity IC50 Ba/F3-TPM3-NTRK1-G595R. In kind it is cell-based. On the procedure: (§1) Then the solutions were subjected to a gradient dilution with DMSO: a clean, sterile V-bottom 96-well microplate was placed in the biological safety cabinet. First, 4 μL of DMSO was added to well B2 and 10 μL of DMSO was added to wells B3-B11 respectively; Next, 6 μL of the 10 mM solution was added to well B2. The microplate was pipetted up and down 10 times for mixing. […] Mixing was performed by pipetting up and down 10 times. The solution was diluted in order until well B10. only DMSO was added to well B11 (no compound).
(§2) 6× Compound Solution Preparation (6-fold dilution, × represents dilution factor): (Initial final concentration: 10 μM), a clean, sterile V-bottom 96-well microplate was placed in the biological safety cabinet. 99 μL of cell culture medium was added to each well from B2 to G11. By using a 12-channel pipettor, 1 μL of the compound solution prepared in the previous step was added into the corresponding wells. The solutions were pipetted up and down 10 times to mix the solutions. The highest concentration of compound in this step was 60 μM.
(§3) Treatment of Cells: the above-prepared cell culture plate was taken out of the incubator. 20 μL of compound solution from each well was added to the corresponding cell culture wells. The lowest pipetting speed was used and touching the bottom of the plate was avoided. The culture plate was gently shaked to mix the compound solution, then the plate was returned to the incubator for further culture for 72 hours.
(§4) The highest treatment concentration of the compound was 10 μM. After 72 hours of treatment, the Cell Titer-Glo (CTG) assay was performed. First, the cell culture plate was removed from the CO2 incubator and allowed to stand at room temperature for 30 minutes to ensure uniform temperature of the plate. The pre-prepared Cell Titer-Glo reagent (following the manufacturer's instructions) was taken and allowed to stand at room temperature to thaw. 60 μL of Cell Titer-Glo reagent was added to each well containing cells. The cells were incubated on a horizontal shaker in a dark place at 225 rpm for 1 hour at room temperature. Then, a Tecan Spark microplate reader was used to read the plate using chemiluminescence according to the manufacturer's instructions.

The subject of assay [3] is Ba/F3-TPM3-NTRK1-WT cells. The assay is described as follows: Growth inhibition of Ba/F3-TPM3-NTRK1-WT cells (Cell Titer-Glo). Format: cell-based. The settings on record: 72 hours, CTG; read-out: inhibitory activity IC50 Ba/F3-TPM3-NTRK1-WT. As for the experimental part: as §1, §2, §3, §4

Chain of TRKA^F589L kinase (P04629 33-796 F589L): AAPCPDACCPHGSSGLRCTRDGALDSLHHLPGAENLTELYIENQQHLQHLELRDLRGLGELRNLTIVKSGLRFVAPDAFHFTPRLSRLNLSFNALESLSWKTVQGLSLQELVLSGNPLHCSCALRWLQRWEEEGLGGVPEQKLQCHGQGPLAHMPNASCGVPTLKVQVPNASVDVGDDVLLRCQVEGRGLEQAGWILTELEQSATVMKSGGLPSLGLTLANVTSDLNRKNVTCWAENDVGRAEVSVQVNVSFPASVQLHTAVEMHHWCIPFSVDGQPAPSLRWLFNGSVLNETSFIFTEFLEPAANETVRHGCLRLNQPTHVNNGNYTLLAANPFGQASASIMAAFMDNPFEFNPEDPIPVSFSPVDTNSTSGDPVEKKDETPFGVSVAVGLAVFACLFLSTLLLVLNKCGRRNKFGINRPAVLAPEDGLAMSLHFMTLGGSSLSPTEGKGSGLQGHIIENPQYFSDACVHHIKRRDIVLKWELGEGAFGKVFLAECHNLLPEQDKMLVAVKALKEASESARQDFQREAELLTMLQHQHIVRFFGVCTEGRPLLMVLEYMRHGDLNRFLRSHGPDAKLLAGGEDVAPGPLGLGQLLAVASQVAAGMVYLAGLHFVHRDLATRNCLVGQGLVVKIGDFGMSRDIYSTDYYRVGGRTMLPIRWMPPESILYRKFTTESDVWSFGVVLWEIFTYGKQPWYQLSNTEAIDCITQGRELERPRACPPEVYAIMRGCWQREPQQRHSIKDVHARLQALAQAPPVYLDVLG
Chain of TRKA^WT kinase (P04629 33-796): as the sequence (P04629 33-796 F589L) above, with L557F counted along it

As for `Fc1ccc2c(c1)[C@H]1CCCN1c1ccc3ncc(n3n1)-c1cc(ccn1)CO2` [Example I-49, (14bR,E)-13-fluoro-14b,15,16,17-tetrahydro-9H-1,19-etheno-4,8-(metheno)benzo[b]imidazo[1,5-h]pyrrolo[2,1-d][1]oxa[5,7,8,11]tetraazacyclopentadecine], the IC50 was under 3 nM at TRKA^WT kinase, under 5 nM on TRKA^F589L kinase and under 100 nM in assay [1].
On the same counts, the results for `Fc1ccc2c(c1)[C@H]1CCCN1c1ccc3ncc(n3n1)-c1cc(ncn1)CCO2` [Example I-69, (3^2R,E)-4^5-fluoro-5-oxa-2(3,6)-imidazo[1,2-b]pyridazina-1(4,6)-pyrimidina-3(1,2)-pyrrolidina-4(1,2)-benzenacycloheptaphane] are under 3 nM, under 5 nM and under 100 nM.
Regarding `Fc1cnc2c(c1)[C@H]1C[C@H](F)CN1c1ccc3ncc(n3n1)-c1nccc(n1)CCO2` [Example I-88, (3^2R,3^4S,E)-3^4,4^5-difluoro-5-oxa-2(3,6)-imidazo[1,2-b]pyridazina-1(2,4)-pyrimidina-4(3,2)-pyridina-3(1,2)-pyrrolidinacycloheptaphane], the IC50 on TRKA^WT kinase is under 3 nM; on TRKA^F589L kinase, under 5 nM; in assay [1], 10.1 nM; in assay [2] it was 1.7 nM; in assay [3], 0.12 nM.
Turning to `C[C@H]1Nc2ccc3ncc(n3n2)-c2cc(cnn2)CCOc2ncc(F)cc21` [Example I-89, (4R,E)-5^5-fluoro-4-methyl-6-oxa-3-aza-2(3,6)-imidazo[1,2-b]pyridazina-1(3,5)-pyridazina-5(3,2)-pyridinacyclooctaphane], the IC50 on TRKA^WT kinase is under 3 nM; at TRKA^F589L kinase, under 5 nM; in assay [1], under 100 nM.
The corresponding values for `C[C@H]1Cc2ccnc(n2)-c2cnc3ccc(nn23)N2CCC[C@@H]2c2cc(F)cnc2O1` [Example I-95, (32R,6S,E)-4-fluoro-6-methyl-5-oxa-2(3,6)-imidazo[1,2-b]pyridazina-1(2,4)-pyrimidina-4(3,2)-pyridina-3(1,2)-pyrrolidinacycloheptaphane] are under 3 nM, under 5 nM and under 100 nM.
The corresponding values for `C[C@@H]1Cc2cc(ncn2)-c2cnc3ccc(nn23)N2CCC[C@@H]2c2cc(F)ccc2O1` [Example I-97, (3^2R,6R,E)-4^5-fluoro-6-methyl-5-oxa-2(3,6)-imidazo[1,2-b]pyridazina-1(4,6)-pyrimidina-3(1,2)-pyrrolidina-4(1,2)-benzenacycloheptaphane] are under 3 nM, under 5 nM and under 100 nM.
In the case of `C[C@@H]1Cc2cc(ncn2)-c2cnc3ccc(nn23)N2C[C@@H](F)C[C@@H]2c2cc(F)ccc2O1` [Example I-98, (3^2R,3^4S,6R,E)-3^4,4^5-difluoro-6-methyl-5-oxa-2(3,6)-imidazo[1,2-b]pyridazina-1(4,6)-pyrimidina-3(1,2)-pyrrolidina-4(1,2)-benzenacycloheptaphane], the IC50 was under 3 nM at TRKA^WT kinase; under 5 nM at TRKA^F589L kinase; 16.3 nM in assay [1]; 1.5 nM in assay [2]; 0.22 nM in assay [3].
Take “(R)-(E)-4-methyl-6-oxa-3-aza-2(3,6)-imidazo[1,2-b]pyridazina-1(4,6)-pyrimidina-5(1,2)-benzenacyclooctaphane [Example I-32]”: the figures for the IC50 (on TRKA^WT kinase; on TRKA^F589L kinase; in assay [1]) were under 3 nM, under 5 nM and under 100 nM, respectively.

Source of the values: US20260028352A1, “MACROCYCLIC IMIDAZO [1,2-B] PYRIDAZINE DERIVATIVE, PREPARATION METHOD THEREFOR, AND USE THEREOF” (SUZHOU LANGRUI BIOPHARMACEUTICAL CO., LTD., priority 2022, published 2026).
